In brackets after ≈: the same amount, converted by molar mass. Several values for one entry are separate records, joined by “and”; a condition that tells them apart may be missing. Equal values may be shown once. Read-outs that look alike come from different tables or passages of the source. Non-standard residues stand in square brackets, D forms with d. Residues, ends and D or L forms follow the SMILES beside them. No end group written: not given here. 2Abz = Nc1ccccc1C(=O)O
Assays:
Type in all cases: cell-based
Hemolysis assay = test: Hemolysis assay
Procedure: Whole blood was collected into EDTA tubes and centrifuged at 2500 rpm for 10 min. The plasma and buffy coat were removed, and the erythrocytes were washed three times with 0.9% saline to yield a 4% cell suspension. In 96-well plates, 100 µL of peptide dilutions (6.25–200 µg/mL) were prepared in triplicate, and 100 µL of the erythrocyte suspension was added (final hematocrit 2%). Plates were incubated at 37 °C for 2 h, and then centrifuged again at 2500 rpm for 10 min. A 100 µL aliquot of the supernatant was transferred to a fresh plate, and absorbance was measured at 450 nm. Saline and 1× Triton X-100 served as the negative and positive controls, respectively. Hemolysis (%) was calculated as follows: %hemolysis=treatment absorbance−saline absorbance/1×triton absorbance−saline absorbance

[1] = tested on: K. pneumoniae ATCC 700603; settings: K. pneumoniae ATCC 700603
Procedure: (§1) The minimum inhibitory concentration (MIC) of the peptides was determined by the broth microdilution technique, according to the Clinical and Laboratory Standards Institute (CLSI) guidelines, as previously described. Briefly, bacterial strains were incubated in BHI broth at 37 °C until they reached the exponential growth phase, and inocula were adjusted to 5 × 10^6 CFU/mL using calibration curves. Serial dilutions of the peptides to be evaluated in 96-well plates were made in 90 µL of Mueller Hinton broth at concentrations ranging from 200 to 6.25 µg/mL, and 10 µL of the inoculum adjusted to 5 × 10^6 CFU/mL was added. Finally, the plates were incubated at 37 °C for 24 h, and the absorbance at 620 nm was read. As a negative control, CMH, distilled water, and 10 µL of inoculum were used; for the positive control, vancomycin was used for Gram-positive strains and ciprofloxacin for Gram-negative strains at the MICs dictated by the CLSI; as a technical control, CMH with peptone water was used, and for the growth control, CMH was used with 10 µL of inoculum.
(§2) To determine the minimum bactericidal concentration (MBC), the 96-well plates where the MIC was determined were used as a starting point. From these, an aliquot of the controls and those wells where no apparent bacterial growth was observed were spotted onto trypticase soy agar plates. The plates were incubated at 37 °C for 24 h, and the reading was taken, identifying the lowest concentration of the peptide where there was no bacterial growth as the MBC.

S. aureus ATCC 25923 = settings: S. aureus ATCC 25923
Procedure: as §1, §2

P. aeruginosa ATCC 27853 = settings: P. aeruginosa ATCC 27853
Procedure: as §1, §2

E. coli ATCC 25922 = settings: E. coli ATCC 25922
Procedure: as §1, §2

E. faecalis ATCC 29212 = settings: E. faecalis ATCC 29212
Procedure: as §1, §2

[2] = tested on: S. aureus clinical isolate 11719; settings: S. aureus clinical isolate 11719
[3] = tested on: E. faecalis clinical isolate 213; settings: E. faecalis clinical isolate 213
Procedure: (§3) E. coli isolates 1004 (susceptible), 129797 (resistant), and 301755 (MDR) were selected for evaluation. Isolate 1004 was sensitive to all antibiotics tested. […] These findings identify it as a multidrug-resistant (MDR) strain and an extended-spectrum beta-lactamase (ESBL)-producing bacterium. For S. aureus, isolates 109095, 117719, and 124653 were evaluated. All three were resistant to penicillin, indicating beta-lactamase production mediated by the blaZ gene. Studies have shown that up to 90% of S. aureus isolates worldwide are penicillin-resistant, which implies that this antibiotic is ineffective in infections caused by this pathogen. […] Isolate 124653 was resistant to penicillin, tetracycline, and erythromycin, with the latter belonging to the group of macrolides, antibiotics that inhibit protein synthesis through interaction with the 50S […] subunit. For E. faecalis three isolates were selected: strains 213 (sensitive to all the antibiotics tested), strain 82 (resistant to streptomycin), and strain 179 (resistant to gentamicin). These clinical isolates were selected to assess the antimicrobial activity of the peptide RWQWRWQWR and its analogues conjugated to fluorescent molecules in strains against strains with susceptibility profiles.
(§4) The analysis of synthesized peptides in ATCC reference strains and susceptible, resistant, and multidrug-resistant (MDR) clinical isolates was performed. The clinical isolates were obtained from the National Cancer Institute collection and were previously identified and antibiogrammed using the VITEK system. Additionally, the strains were characterized by MALDI-TOF. The strains were re-primed onto trypticase soy agar and subsequently preserved in Brain–Heart Infusion (BHI) broth containing 20% glycerol. For the MIC and MBC assays, the strains were reactivated and cultured in BHI until they reached their exponential growth phase.
as §1, §2

[4] = tested on: E. coli clinical isolate 129797 (resistant); settings: E. coli clinical isolate 129797
Procedure: as §3, §4, §1, §2

[5] = tested on: E. coli clinical isolate 1004 (susceptible); settings: E. coli clinical isolate 1004
Procedure: as §3, §4, §1, §2

[6] = tested on: E. faecalis clinical isolate 179; settings: E. faecalis clinical isolate 179
Procedure: as §3, §4, §1, §2

[7] = tested on: S. aureus clinical isolate 109095; settings: S. aureus clinical isolate 109095
Procedure: as §3, §4, §1, §2

[8] = tested on: E. coli clinical isolate 301755 (MDR); settings: E. coli clinical isolate 301755
Procedure: as §3, §4, §1, §2

[9] = tested on: S. aureus clinical isolate 124653; settings: S. aureus clinical isolate 124653
Procedure: as §3, §4, §1, §2

[10] = tested on: E. faecalis clinical isolate 82; settings: E. faecalis clinical isolate 82
Procedure: as §3, §4, §1, §2

[11] = MTT cytotoxicity assay in HeLa cells; settings: HeLa cells, MTT, read-out: Cytotoxic Activity (IC50)
Procedure: (§5) MTT assays were conducted in HeLa cells to evaluate the effect of fluorescent probe incorporation on the in vitro cytotoxic activity of the parent non-conjugated peptides. The cytotoxic effect of peptides 1, Abz-1 RhB-1, 2, and RhB-2 in HeLa cells was peptide concentration-dependent, with the highest anticancer activity observed at 200 µg/mL. Incorporation of 2-Abz and RhB at the N-terminal end reduced cytotoxic activity, while the binding of 2-Abz at the C-terminal end or FAM at the N-terminal end drastically diminished anticancer activity (Table 4).

[12] = tested on: clinical isolates of E. faecalis; settings: stated for the E. faecalis clinical isolates together
Procedure: as §3, with “For E. faecalis three isolates were selected: strains 213 (sensitive to all the antibiotics tested), strain 82 (resistant to streptomycin), and strain 179 (resistant to gentamicin). These clinical isolates were selected to assess the antimicrobial activity of the peptide RWQWRWQWR and its analogues conjugated to fluorescent molecules in strains against strains with susceptibility profiles.” left out
(§6) The minimum inhibitory concentration (MIC) of the peptides was determined by the broth microdilution technique, according to the Clinical and Laboratory Standards Institute (CLSI) guidelines, as previously described. […] Serial dilutions of the peptides to be evaluated in 96-well plates were made in 90 µL of Mueller Hinton broth at concentrations ranging from 200 to 6.25 µg/mL, and 10 µL of the inoculum adjusted to 5 × 10^6 CFU/mL was added. Finally, the plates were incubated at 37 °C for 24 h, and the absorbance at 620 nm was read. […]

[13] = tested on: clinical isolates of E. coli; settings: stated for the E. coli clinical isolates together
Procedure: as §3, §4, §1, §2

HeLa cells = test: MTT cytotoxicity assay in HeLa cells; settings: HeLa cells, 200 µg/mL; listed as palindromic peptide
Procedure: as §5

[14] = tested on: clinical isolates of S. aureus; settings: stated for the S. aureus clinical isolates together
Procedure: as §3, with “For E. faecalis three isolates were selected: strains 213 (sensitive to all the antibiotics tested), strain 82 (resistant to streptomycin), and strain 179 (resistant to gentamicin). These clinical isolates were selected to assess the antimicrobial activity of the peptide RWQWRWQWR and its analogues conjugated to fluorescent molecules in strains against strains with susceptibility profiles.” left out
as §6

[15] = at 200 µg/mL (highest tested concentration), 2 h, 37 °C, read-out: hemolysis
[16] = at the lowest MIC concentration, read-out: Percentage of hemolysis
[17] = peptide concentration at 10% hemolysis / IC50 in HeLa cells, read-out: Selectivity index

Molecule | Minimal bactericidal concentration (MBC) [1] | Minimal inhibitory concentration (MIC) [1] | Minimal bactericidal concentration (MBC) (S. aureus ATCC 25923) | Minimal inhibitory concentration (MIC) (S. aureus ATCC 25923) | Minimal bactericidal concentration (MBC) (P. aeruginosa ATCC 27853) | Minimal inhibitory concentration (MIC) (P. aeruginosa ATCC 27853) | Minimal bactericidal concentration (MBC) (E. coli ATCC 25922) | Minimal inhibitory concentration (MIC) (E. coli ATCC 25922) | Minimal bactericidal concentration (MBC) (E. faecalis ATCC 29212) | Minimal inhibitory concentration (MIC) (E. faecalis ATCC 29212) | Minimal bactericidal concentration (MBC) [2] | Minimal inhibitory concentration (MIC) [2] | Minimal bactericidal concentration (MBC) [3] | Minimal inhibitory concentration (MIC) [3] | Minimal inhibitory concentration (MIC) [4] | Minimal bactericidal concentration (MBC) [5] | Minimal inhibitory concentration (MIC) [5] | Minimal bactericidal concentration (MBC) [6] | Minimal inhibitory concentration (MIC) [6] | Minimal bactericidal concentration (MBC) [7] | also measured
N=C(N)NCCC[C@H](NC(=O)[C@H](Cc1c[nH]c2ccccc12)NC(=O)[C@H](CCC(N)=O)NC(=O)[C@H](Cc1c[nH]c2ccccc12)NC(=O)[C@H](CCCNC(=N)N)NC(=O)[C@H](Cc1c[nH]c2ccccc12)NC(=O)[C@H](CCC(N)=O)NC(=O)[C@H](Cc1c[nH]c2ccccc12)NC(=O)[C@H](CCCNC(=N)N)NC(=O)c1ccccc1N)C(N)=O [Abz-1, (2-Abz)-RWQWRWQWR] (H-[2Abz]RWQWRWQWR-NH2) | > 125 µM | > 125 µM | 31 µM (≈ 49.8 µg/mL) | 16 µM (≈ 25.7 µg/mL) | > 125 µM | > 125 µM | 125 µM (≈ 201 µg/mL) | 62 µM (≈ 99.6 µg/mL) | 62 µM (≈ 99.6 µg/mL) | 62 µM (≈ 99.6 µg/mL) | > 125 µM | 125 µM (≈ 201 µg/mL) | 62 µM (≈ 99.6 µg/mL) | 31 µM (≈ 49.8 µg/mL) | > 125 µM | > 125 µM | > 125 µM | 62 µM (≈ 99.6 µg/mL) | 31 µM (≈ 49.8 µg/mL) | > 125 µM | hemolysis at 2 h (Hemolysis assay; [15]): 13.4%; hemolysis at 2 h (Hemolysis assay; [16]): 6.5%; selectivity ratio at 2 h (Hemolysis assay; [17]): 0.7; Minimal bactericidal concentration (MBC) [4]: > 125 µM; Minimal inhibitory concentration (MIC) [7]: 125 µM (≈ 201 µg/mL); Minimal bactericidal concentration (MBC) [8]: > 125 µM; Minimal inhibitory concentration (MIC) [8]: > 125 µM; Minimal bactericidal concentration (MBC) [9]: > 125 µM; Minimal inhibitory concentration (MIC) [9]: 125 µM (≈ 201 µg/mL); Minimal bactericidal concentration (MBC) [10]: 62 µM (≈ 99.6 µg/mL); Minimal inhibitory concentration (MIC) [10]: 31 µM (≈ 49.8 µg/mL); IC50 ([11]; human): 140 µg/mL and 87 µM; MIC [12]: 31 µM (≈ 49.8 µg/mL)
RWQWRWQWR-NH2 [peptide 1, RWQWRWQWR] | 135 µM | 67 µM | 34 µM | 17 µM | > 135 µM | 67 µM | 34 µM | 17 µM | > 135 µM | 135 µM | > 135 µM | 135 µM | 135 µM | 135 µM | 34/34 µM | > 135 µM | 17 µM | 135 µM | 135 µM | 135 µM | hemolysis (Hemolysis assay; [15]): 4.5%; hemolysis (Hemolysis assay; [16]): 1.1%; selectivity ratio (Hemolysis assay; [17]): > 3; MIC [13]: 17 to 34 µM; Minimal inhibitory concentration (MIC) [7]: 135 µM; Minimal bactericidal concentration (MBC) [8]: 67 µM; Minimal inhibitory concentration (MIC) [8]: 34 µM; Minimal bactericidal concentration (MBC) [9]: > 135 µM; Minimal inhibitory concentration (MIC) [9]: 135 µM; Minimal bactericidal concentration (MBC) [10]: 67/67 µM; cell viability (HeLa cells): about 20%; IC50 [11]: 77 µg/mL and 52 µM; MIC [14]: 135 µM

From PMC12383145, “Fluorescent Peptides Internalize HeLa Cells and Kill Multidrug-Resistant Clinical Bacterial Isolates” (Antibiotics, 2025)
